Test results: patent US12024506B2, “Compounds” (Oxford University Innovation Limited, priority 2018, dated 2024)

Tests used:
[1] = target: T1, GST-human KRas166 (G12V) GPPNHP (Homo sapiens, UniProt P01116, G12V); assay: KRas small-molecule screening by SPR (Biacore T200); type: binding; settings: compound 100 uM, 5% DMSO buffer; immobilised GST-KRas166 (G12V) GPPNHP
T1 construct: made in house; host or cells: E. coli C41(DE3)
Procedure, shortened: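 Biacore T200 screen: compounds at 100 uM final in 5% DMSO buffer (100 mM NaCl, 5 mM MgCl2) over GPPNHP-bound GST-KRas166 G12V captured by anti-GST antibody (10,000–15,000 RU) versus GST-only channel. Expected 1:1 Rmax 63 RU; DMSO solvent correction applied.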

[2] = system: DLD1 cells (ATCC CCL-221); assay: Cell viability assay 1 (CellTiter-Glo), DLD1 cells; type: cell-based; settings: Homo sapiens, DLD-1 cells, 48 h, second value of the cell, read-out: Cell Viability DLD-1 (concentration that decreases cell viability by 50%)
Experimental: (§1) Cells (A549 ATCC CCL-185) are cultured in Dulbecco's Modified Eagle's Medium plus 10% foetal calf serum and 2 mM L-glutamine at 37° C., 5% CO2. Cells are plated onto white clear bottom 96-well plates (5000 cells/well in 200 μl media) and left to adhere overnight at 37° C., 5% CO2. Next day, test compound (1 μl at 200× concentration in 100% DMSO) is added to give final test compound concentration 1× in 0.5% DMSO. After 48 h of incubation at 37° C., 5% CO2, 20 μl CellTiter-Glo reagent (Promega G7572) is added into each well. Plates are incubated at room temperature with shaking for 30 min and then luminescence is read using a PheraStar plate reader. The concentration of compounds that decrease cell viability by 50% is calculated from dose response curves generated using Dotmatics data analysis software.
In the DLD1 cell assay, cells (ATCC CCL-221) are cultured in RPMI-1640 medium plus 10% foetal calf serum and 2 mM L-glutamine at 37° C., 5% CO2.

[3] = system: H358 cells (ATCC CRL-5807); assay: Cell viability assay 1 (CellTiter-Glo), H358 cells; type: cell-based; settings: Homo sapiens, NCI-H358, 48 h, first value of the cell, read-out: Cell Viability H358 (concentration that decreases cell viability by 50%)
Experimental: as §1
In the H358 cell assay, cells (ATCC CRL-5807) are cultured in RPMI-1640 medium plus 10% foetal calf serum and 2 mM L-glutamine at 37° C., 5% CO2.

| Structure (SMILES) | SPR Response Units [1] | IC50 [2] | IC50 [3] |
| --- | --- | --- | --- |
| COc1cccc(-c2cccc3c2O[C@@H](CNC(=O)c2ccc(OCCN(C)C)cc2)CO3)n1 [Example 41, 4-(2-Dimethylamino-ethoxy)-N-[(S)-8-(6-methoxy-pyridin-2-yl)-2,3-dihydrobenzo [1,4]dioxin-2-ylmethyl]-benzamide] | 60 Response Units | 20 µM | 48 µM |
| COc1cccc(-c2cccc3c2OC(CNC(=O)c2ccc(CN4CCN(C)CC4)o2)CO3)n1 (stereo not drawn) [Example 43, 5-(4-Methyl-piperazin-1-ylmethyl)-furan-2-carboxylic acid [8-(6-methoxy-pyridin-2-yl)-2,3-dihydro-benzo[1,4]dioxin-2-ylmethyl]-amide] | 105 Response Units | 19 µM | > 100 µM |
| COc1nc(-c2cccc3c2OCCO3)ccc1Nc1ccc(Cn2ccnc2)cc1 [Example 58, [6-(2,3-Dihydro-benzo[1,4]dioxin-5-yl)-2-methoxy-pyridin-3-yl]-(4-imidazol-1-ylmethyl-phenyl)-amine] | 269 Response Units | 16.2 µM | 19 µM |
| COc1nc(-c2cccc3c2OCCO3)ccc1Nc1cccc(CN2CCCC2)c1 [Example 60, [6-(2,3-Dihydro-benzo[1,4]dioxin-5-yl)-2-methoxy-pyridin-3-yl]-(3-pyrrolidin-1-ylmethyl-phenyl)-amine] | 108 Response Units | 7.5 µM | 11.4 µM |
| COc1nc(-c2cccc3c2OCCO3)ccc1Nc1cccc(CN2CCOCC2)c1 [Example 61, [6-(2,3-Dihydro-benzo[1,4]dioxin-5-yl)-2-methoxy-pyridin-3-yl]-(3-morpholin-4-ylmethyl-phenyl)-amine] | 61 Response Units | 12.2 µM | 20.1 µM |
| COc1nc(-c2cccc3c2O[C@@H](CNC(=O)C2CCOCC2)CO3)ccc1Nc1cccc(CN(C)C)c1 [Example 69] | 128 Response Units | 21.5 µM | 21 µM |
| CN(C)Cc1cccc(Nc2ccc(-c3cccc4c3OCCO4)cc2)c1.O=CO [Example 70, [4-(2,3-Dihydro-benzo[1,4]dioxin-5-yl)-phenyl]-(3-dimethylaminomethyl-phenyl)-amine. formate salt] | 86 Response Units | 10.6 µM | 8.6 µM |
| COc1nc(-c2cccc3c2OCCO3)ccc1Nc1cccc([C@@H]2CCCN2)c1 [Example 75, [6-(2,3-Dihydro-benzo[1,4]dioxin-5-yl)-2-methoxy-pyridin-3-yl]-((S)-3-pyrrolidin-2-yl-phenyl)-amine] | 112 Response Units | 4 µM | 2.6 µM |
| COc1nc(-c2cccc3c2OCCO3)ccc1Nc1cccc(CNC(=O)c2cccnc2)c1 [Example 79, N-{3-[6-(2,3-Dihydro-benzo[1,4]dioxin-5-yl)-2-methoxy-pyridin-3-ylamino]-benzyl}-nicotinamide] | 47 Response Units | 16.5 µM | 18 µM |
| COc1nc(-c2cccc3c2OCCO3)ccc1Nc1cccc(CNC(=O)c2ccncc2)c1 [Example 80, N-{3-[6-(2,3-Dihydro-benzo[1,4]dioxin-5-yl)-2-methoxy-pyridin-3-ylamino]-benzyl}-isonicotinamide] | 51 Response Units | 13.4 µM | 16.5 µM |
| CN1CCN(Cc2ccc(C(=O)NCC3COc4cccc(-c5cc(OCc6ccccc6)ccn5)c4O3)o2)CC1 (stereo not drawn) [Example 106, 5-(4-Methyl-piperazin-1-ylmethyl)-furan-2-carboxylic acid [8-(4-benzyloxy-pyridin-2-yl)-2,3-dihydro-benzo[1,4]dioxin-2-ylmethyl]-amide] | 114 Response Units | 11 µM | 27 µM |

Second part, the compound after the results:

| SPR Response Units [1] | IC50 [2] | IC50 [3] | Structure (SMILES) |
| --- | --- | --- | --- |
| 119 Response Units | 3 µM | 18 µM | COc1cccc(-c2cccc3c2OC(CN(Cc2ccc(OCCN(C)C)cc2)Cc2cccnc2)CO3)n1 (stereo not drawn) [Example 31, {2-[4-({[8-(6-Methoxy-pyridin-2-yl)-2,3-dihydrobenzo[1,4]dioxin-2-ylmethyl]-pyridin3-ylmethyl-amino}-methyl)-phenoxy]-ethyl}-dimethyl-amine] |
| 85 Response Units | 7 µM | 17 µM | COc1cccc(-c2cccc3c2OC(CN(Cc2ccc(OCCN(C)C)cc2)CC2CCOCC2)CO3)n1 (stereo not drawn) [Example 32, [2-(4-{[[8-(6-Methoxy-pyridin-2-yl)-2,3-dihydro-benzo[1,4]dioxin-2-ylmethyl]-(tetrahydro-pyran-4-ylmethyl)-amino]-methyl}-phenoxy)-ethyl]-dimethyl-amine] |
| 335 Response Units | 3.6 µM | 58 µM | COc1cccc(-c2cccc3c2OC(CNC(=O)c2ccc(OCCN(C)C)cc2F)CO3)n1 (stereo not drawn) [Example 38, 4-(2-Dimethylamino-ethoxy)-2-fluoro-N-[8-(6-methoxy-pyridin-2-yl)-2,3-dihydro-benzo[1,4]dioxin-2-ylmethyl]-benzamide] |
| 127 Response Units | 5 µM | 79 µM | COc1cccc(-c2cccc3c2OC(CNC(=O)c2ccc(OCCN(C)C)cc2)CO3)n1 (stereo not drawn) [Example 39, 4-(2-Dimethylamino-ethoxy)-N-[8-(6-methoxy-pyridin-2-yl)-2,3-dihydro-benzo[1,4]dioxin-2-ylmethyl]-benzamide] |
| 58 Response Units | 12 µM | 52 µM | COc1cccc(-c2cccc3c2O[C@H](CNC(=O)c2ccc(OCCN(C)C)cc2)CO3)n1 [Example 40, 4-(2-Dimethylamino-ethoxy)-N-[(R)-8-(6-methoxy-pyridin-2-yl)-2,3-dihydro-benzo[1,4]dioxin-2-ylmethyl]-benzamide] |
| 148 Response Units | > 100 µM | > 100 µM | COc1cccc(-c2cccc3c2OC(CNC(=O)c2coc(CN4CCOCC4)c2)CO3)n1 (stereo not drawn) [Example 46, 5-Morpholin-4-ylmethyl-furan-3-carboxylic acid [8-(6-methoxy-pyridin-2-yl)-2,3-dihydro-benzo[1,4]dioxin-2-ylmethyl]-amide] |
| 130 Response Units | 9.2 µM | 8 µM | COc1nc(-c2cccc3c2OCCO3)ccc1Nc1cccc(CN(C)C)c1 [Example 55, [6-(2,3-dihydro-benzo[1,4]dioxin-5-yl)-2-methoxy-pyridin-3-yl]-(3-dimethylaminomethyl-phenyl)-amine] |
| 77 Response Units | 20.2 µM | 29 µM | COc1nc(-c2cccc3c2OCCO3)ccc1Nc1ccc(CN(C)C)cn1 [Example 57, [6-(2,3-Dihydro-benzo[1,4]dioxin-5-yl)-2-methoxy-pyridin-3-yl]-(5-dimethylaminomethyl-pyridin-2-yl)-amine] |
| 72 Response Units | 13.7 µM | 8.6 µM | COc1nc(-c2cccc3c2OCCO3)ccc1Nc1cccc(C2CCC(=O)N2)c1 (stereo not drawn) [Example 62, 5-{3-[6-(2,3-Dihydro-benzo[1,4]dioxin-5-yl)-2-methoxy-pyridin-3-ylamino]-phenyl}-pyrrolidin-2-one] |
| 110 Response Units | 6 µM | 3.11 µM | COc1nc(-c2cccc3c2OCCO3)ccc1Nc1cccc([C@H]2CCCN2)c1 [Example 74, [6-(2,3-Dihydro-benzo[1,4]dioxin-5-yl)-2-methoxy-pyridin-3-yl]-((R)-3-pyrrolidin-2-yl-phenyl)-amine] |
| 59 Response Units | 20 µM | 33 µM | COc1nc(-c2cccc3c2OC(CNC(=O)C2CCOCC2)CO3)ccc1Nc1cccc(CN(C)C)c1 (stereo not drawn) [Example 84, Tetrahydro-pyran-4-carboxylic acid {8-[5(3-dimethylamino-methyl-phenylamino)-6-methoxy-pyridin-2-yl]-2,3-dihydro-benzo[1,4]dioxin-2-ylmethyl}-amide] |
| 97 Response Units | 5 µM | 28 µM | COc1cc(NC(=O)N[C@@H]2CC[C@H](NC(=O)OCc3ccccc3)C2)cc(-c2cccc3c2OC(CNC(=O)C2CCOCC2)CO3)n1 (stereo partly drawn) [Example 100, ((1S,3R)-3-{3-[2-Methoxy-6-(3-{[(tetrahydro-pyran-4-carbonyl)-amino]-methyl}-2,3-dihydro-benzo[1,4]dioxin-5-yl)-pyridin-4-yl]-ureido}-cyclopentyl)-carbamic acid benzyl ester] |
